Measurements published in ChEMBL document CHEMBL1130587, “General synthesis of 3-substituted alkenyl GABA as potential anticonvulsants” (Bioorg Med Chem Lett, 1998).
Active and inactive are the calls of the source. The rule behind the calls is not given here.

Assay: Half life at a concentration 1 mM.
Assay type: ADME

Row | Compound | half-life at 1000 µM [min]
1 | C=CC(N)CCC(=O)O (configuration not stated) [VIGABATRIN] | 0.3
2 | C=CC(CN)CC(=O)O (configuration not stated) | 39

Assay: Compound was evaluated for its ability to increase the […] glutamate decarboxylase at 2.5 mM dose
Set-up: scale not given: the % may be the effect or the level left

Row | Compound | Activity [%]
3 | CC(C)CC(CN)CC(=O)O (configuration not stated) | 50

Assay: Compound was evaluated for the […] glutamate decarboxylase at 2.5 mM dose; No significant activation

Row | Compound | Activity
4 | C/C=C/C(CN)CC(=O)O (configuration not stated) | inactive
5 | CCC/C=C\C(CN)CC(=O)O (configuration not stated) | inactive
6 | CC(C)=CC(CN)CC(=O)O (configuration not stated) | inactive
7 | CC/C=C\C(CN)CC(=O)O (configuration not stated) | inactive
8 | CC(C)/C=C\C(CN)CC(=O)O (configuration not stated) | inactive
9 | CC/C=C/C(CN)CC(=O)O (configuration not stated) | inactive
10 | C=CC(CN)CC(=O)O (configuration not stated) | inactive
11 | C/C=C(\C)C(CN)CC(=O)O (configuration not stated) | inactive
12 | C/C=C\C(CN)CC(=O)O (configuration not stated) | inactive
